Each molecule was assayed on Stellaria media, Amaranthus retroflexus, Sinapis avreuse, Avena fatura, Lolium multiflorum and Setaria viridis (assay: Pre-emergence action against weeds (greenhouse pot test, visual rating)). Settings: application rate of 3.0 kg or less of active substance per hectare, trial period of 3 to 4 weeks.
Type: in vivo
Text: Seeds of mono- and dicotyledonous weed plants are placed in sandy loam soil in cardboard pots and covered with soil. The novel compounds, formulated as wettable powders or emulsion concentrates, are then applied to the surface of the soil cover in the form of an aqueous suspension or emulsion at an application rate of from 600 to 800 l of water/ha (converted), in various dosages. After the treatment, the pots are placed in a greenhouse and kept under good growth conditions for the weeds. After the test plants have emerged after a trial period of 3 to 4 weeks, the damage to the plants or the negative effect on emergence is rated visually by comparison with untreated controls. As shown by the test results, the novel compounds have good herbicidal pre-emergence activity against a broad spectrum of weed grasses and broad-leaved weeds.
With `CC(C)(F)c1nc(N)nc(NC(CCCOc2ccccc2)C2CC2)n1` (stereo not drawn) [Example 528] the “herbicidal activity pre-emergence (damage to the plants or negative effect on emergence, rated visually)” value (shortened to “herbicidal activity pre-emergence”) was “good and in most cases very good herbicidal activity”. In the case of `CCC(CCCCOc1ccccc1)Nc1nc(N)nc(C(F)(F)C(F)F)n1` (stereo not drawn) [Example 605], the “herbicidal activity pre-emergence” value is reported as “good and in most cases very good herbicidal activity”. In the case of `CC(C)c1nc(N)nc(NCC=NOCc2ccccc2)n1` [Example 1253], the “herbicidal activity pre-emergence” value is reported as “good and in most cases very good herbicidal activity”. `CC(COC(=O)c1cccc(C(F)(F)F)c1)Nc1nc(N)nc(C(C)C)n1` (stereo not drawn) [Example 78] was tested, and the “herbicidal activity pre-emergence” value was “good and in most cases very good herbicidal activity”. With `CC(F)c1nc(N)nc(NC2CCCCC2COc2ccccc2)n1` (stereo not drawn) [Example 870] the “herbicidal activity pre-emergence” value was “good and in most cases very good herbicidal activity”. `CC(CCOc1cc(F)cc(F)c1)Nc1nc(N)nc(C(F)(F)C(F)F)n1` (stereo not drawn) [Example 297] was tested, and the “herbicidal activity pre-emergence” value was “good and in most cases very good herbicidal activity”. With `CC(C)(F)c1nc(N)nc(NC(CCCCOc2ccccc2)C2CC2)n1` (stereo not drawn) [Example 636] the “herbicidal activity pre-emergence” value was “good and in most cases very good herbicidal activity”. In the case of `CC(CCCCOc1ccccc1)Nc1nc(N)nc(C(F)(F)C(F)F)n1` (stereo not drawn) [Example 696], the “herbicidal activity pre-emergence” value is reported as “good and in most cases very good herbicidal activity”. `CC(F)c1nc(N)nc(NC(CCCCOc2ccccc2)C2CC2)n1` (stereo not drawn) [Example 681] was tested, and the “herbicidal activity pre-emergence” value was “good and in most cases very good herbicidal activity”. In the case of `CCc1nc(N)nc(NCC=NOCc2cc(C)cc(C)c2)n1` [Example 1235], the “herbicidal activity pre-emergence” value is reported as “good and in most cases very good herbicidal activity”. In the case of `CC(F)c1nc(N)nc(NCC=NOCc2ccccc2)n1` (stereo not drawn) [Example 1307], the “herbicidal activity pre-emergence” value is reported as “good and in most cases very good herbicidal activity”. `Cc1cccc(OCCCC(C)Nc2nc(N)nc(C(C)F)n2)c1` (stereo not drawn) [Example 532] was tested, and the “herbicidal activity pre-emergence” value was “good and in most cases very good herbicidal activity”. In the case of `CCCc1nc(N)nc(NC(C)COCCOc2ccccc2)n1` (stereo not drawn) [Example 1404], the “herbicidal activity pre-emergence” value is reported as “good and in most cases very good herbicidal activity”. `Cc1cccc(OCCCC(C)Nc2nc(N)nc(C(C)(C)F)n2)c1` (stereo not drawn) [Example 502] was tested, and the “herbicidal activity pre-emergence” value was “good and in most cases very good herbicidal activity”. With `CC(C)(F)c1nc(N)nc(NC2CCCCC2COc2ccccc2)n1` (stereo not drawn) [Example 869] the “herbicidal activity pre-emergence” value was “good and in most cases very good herbicidal activity”. With `Cc1cc(C)cc(CON=CCNc2nc(N)nc(C(C)(C)F)n2)c1` [Example 1236] the “herbicidal activity pre-emergence” value was “good and in most cases very good herbicidal activity”. For `CCCc1nc(N)nc(NC(CC)CCCCOc2ccccc2)n1` (stereo not drawn) [Example 618], the “herbicidal activity pre-emergence” value was “good and in most cases very good herbicidal activity”. In the case of `CCC(CCCOc1cccc(C)c1)Nc1nc(N)nc(C(C)C)n1` (stereo not drawn) [Example 553], the “herbicidal activity pre-emergence” value is reported as “good and in most cases very good herbicidal activity”. For `Cc1cc(C)cc(CON=CCNc2nc(N)nc(C(C)C)n2)c1` [Example 1251], the “herbicidal activity pre-emergence” value was “good and in most cases very good herbicidal activity”. In the case of `CCC(CCCCOc1ccccc1)Nc1nc(N)nc(C(C)(C)F)n1` (stereo not drawn) [Example 598], the “herbicidal activity pre-emergence” value is reported as “good and in most cases very good herbicidal activity”. With `CC(COCCOc1ccccc1)Nc1nc(N)nc(C(C)(C)F)n1` (stereo not drawn) [Example 1385] the “herbicidal activity pre-emergence” value was “good and in most cases very good herbicidal activity”. `CCC(COCCOc1ccccc1)Nc1nc(N)nc(C(C)(C)F)n1` (stereo not drawn) [Example 1344] was tested, and the “herbicidal activity pre-emergence” value was “good and in most cases very good herbicidal activity”. With `CCC(COCCOc1ccccc1)Nc1nc(N)nc(C(C)F)n1` (stereo not drawn) [Example 1346] the “herbicidal activity pre-emergence” value was “good and in most cases very good herbicidal activity”. In the case of `Cc1cc(C)cc(OCCC(C)Nc2nc(N)nc(C(C)(C)F)n2)c1` (stereo not drawn) [Example 282], the “herbicidal activity pre-emergence” value is reported as “good and in most cases very good herbicidal activity”. `CC(COCc1ccc(Cl)cc1)Nc1nc(N)nc(C(C)(C)F)n1` (stereo not drawn) [Example 167] was tested, and the “herbicidal activity pre-emergence” value was “good and in most cases very good herbicidal activity”. With `Cc1cc(C)cc(OCCC(C)Nc2nc(N)nc(C(C)C)n2)c1` (stereo not drawn) [Example 339] the “herbicidal activity pre-emergence” value was “good and in most cases very good herbicidal activity”. In the case of `CC(COCc1cccc(Br)c1)Nc1nc(N)nc(C(C)(C)F)n1` (stereo not drawn) [Example 76], the “herbicidal activity pre-emergence” value is reported as “good and in most cases very good herbicidal activity”. In the case of `Cc1cc(C)cc(COCC(C)Nc2nc(N)nc(C(C)(C)F)n2)c1` (stereo not drawn) [Example 64], the “herbicidal activity pre-emergence” value is reported as “good and in most cases very good herbicidal activity”. In the case of `Cc1cc(C)cc(OCCC(C)Nc2nc(N)nc(C(F)(F)C(F)F)n2)c1` (stereo not drawn) [Example 329], the “herbicidal activity pre-emergence” value is reported as “good and in most cases very good herbicidal activity”.

Each molecule was assayed on Stellaria media, Amaranthus retroflexus, Sinapis avreuse, Avena fatura, Lolium multiflorum and Setaria viridis (assay: Post-emergence action against weeds (greenhouse pot test, visual rating)). Settings: three-leaf stage, application rate of 3.0 kg or less of active substance per hectare, 3 to 4 weeks in greenhouse.
Type: in vivo
Method: Seeds of mono- and dicotyledonous weeds are placed in sandy loam soil in cardboard pots, covered with soil and cultivated in a greenhouse under good growth conditions. Two to three weeks after sowing, the test plants are treated at the three-leaf stage. The novel compounds, formulated as wettable powders or emulsion concentrates, are sprayed in various dosages onto the green parts of the plant at an application rate of from 600 to 8001 of water/ha (converted), and, after the test plants have remained in the greenhouse for 3 to 4 weeks under optimum growth conditions, the action of the preparations is rated visually by comparison with untreated controls. The novel compositions also have good post-emergence herbicidal activity against a broad spectrum of economically important weed grasses and broad-leaved weeds.
With `CC(C)(F)c1nc(N)nc(NC(CCCOc2ccccc2)C2CC2)n1` (stereo not drawn) [Example 528] the “herbicidal activity post-emergence (rated visually)” value (“herbicidal activity post-emergence” for short) was “good and in most cases very good herbicidal activity”. With `CCC(CCCCOc1ccccc1)Nc1nc(N)nc(C(F)(F)C(F)F)n1` (stereo not drawn) [Example 605] the “herbicidal activity post-emergence” value was “good and in most cases very good herbicidal activity”. For `CC(C)c1nc(N)nc(NCC=NOCc2ccccc2)n1` [Example 1253], the “herbicidal activity post-emergence” value was “good and in most cases very good herbicidal activity”. For `CC(COC(=O)c1cccc(C(F)(F)F)c1)Nc1nc(N)nc(C(C)C)n1` (stereo not drawn) [Example 78], the “herbicidal activity post-emergence” value was “good and in most cases very good herbicidal activity”. For `CC(F)c1nc(N)nc(NC2CCCCC2COc2ccccc2)n1` (stereo not drawn) [Example 870], the “herbicidal activity post-emergence” value was “good and in most cases very good herbicidal activity”. `CC(CCOc1cc(F)cc(F)c1)Nc1nc(N)nc(C(F)(F)C(F)F)n1` (stereo not drawn) [Example 297] was tested, and the “herbicidal activity post-emergence” value was “good and in most cases very good herbicidal activity”. `CC(C)(F)c1nc(N)nc(NC(CCCCOc2ccccc2)C2CC2)n1` (stereo not drawn) [Example 636] was tested, and the “herbicidal activity post-emergence” value was “good and in most cases very good herbicidal activity”. `CC(CCCCOc1ccccc1)Nc1nc(N)nc(C(F)(F)C(F)F)n1` (stereo not drawn) [Example 696] was tested, and the “herbicidal activity post-emergence” value was “good and in most cases very good herbicidal activity”. `CC(F)c1nc(N)nc(NC(CCCCOc2ccccc2)C2CC2)n1` (stereo not drawn) [Example 681] was tested, and the “herbicidal activity post-emergence” value was “good and in most cases very good herbicidal activity”. With `CCc1nc(N)nc(NCC=NOCc2cc(C)cc(C)c2)n1` [Example 1235] the “herbicidal activity post-emergence” value was “good and in most cases very good herbicidal activity”. `CC(F)c1nc(N)nc(NCC=NOCc2ccccc2)n1` (stereo not drawn) [Example 1307] was tested, and the “herbicidal activity post-emergence” value was “good and in most cases very good herbicidal activity”. In the case of `Cc1cccc(OCCCC(C)Nc2nc(N)nc(C(C)F)n2)c1` (stereo not drawn) [Example 532], the “herbicidal activity post-emergence” value is reported as “good and in most cases very good herbicidal activity”. For `CCCc1nc(N)nc(NC(C)COCCOc2ccccc2)n1` (stereo not drawn) [Example 1404], the “herbicidal activity post-emergence” value was “good and in most cases very good herbicidal activity”. For `Cc1cccc(OCCCC(C)Nc2nc(N)nc(C(C)(C)F)n2)c1` (stereo not drawn) [Example 502], the “herbicidal activity post-emergence” value was “good and in most cases very good herbicidal activity”. For `CC(C)(F)c1nc(N)nc(NC2CCCCC2COc2ccccc2)n1` (stereo not drawn) [Example 869], the “herbicidal activity post-emergence” value was “good and in most cases very good herbicidal activity”. `Cc1cc(C)cc(CON=CCNc2nc(N)nc(C(C)(C)F)n2)c1` [Example 1236] was tested, and the “herbicidal activity post-emergence” value was “good and in most cases very good herbicidal activity”. In the case of `CCCc1nc(N)nc(NC(CC)CCCCOc2ccccc2)n1` (stereo not drawn) [Example 618], the “herbicidal activity post-emergence” value is reported as “good and in most cases very good herbicidal activity”. With `CCC(CCCOc1cccc(C)c1)Nc1nc(N)nc(C(C)C)n1` (stereo not drawn) [Example 553] the “herbicidal activity post-emergence” value was “good and in most cases very good herbicidal activity”. In the case of `Cc1cc(C)cc(CON=CCNc2nc(N)nc(C(C)C)n2)c1` [Example 1251], the “herbicidal activity post-emergence” value is reported as “good and in most cases very good herbicidal activity”. In the case of `CCC(CCCCOc1ccccc1)Nc1nc(N)nc(C(C)(C)F)n1` (stereo not drawn) [Example 598], the “herbicidal activity post-emergence” value is reported as “good and in most cases very good herbicidal activity”. For `CC(COCCOc1ccccc1)Nc1nc(N)nc(C(C)(C)F)n1` (stereo not drawn) [Example 1385], the “herbicidal activity post-emergence” value was “good and in most cases very good herbicidal activity”. For `CCC(COCCOc1ccccc1)Nc1nc(N)nc(C(C)(C)F)n1` (stereo not drawn) [Example 1344], the “herbicidal activity post-emergence” value was “good and in most cases very good herbicidal activity”. In the case of `CCC(COCCOc1ccccc1)Nc1nc(N)nc(C(C)F)n1` (stereo not drawn) [Example 1346], the “herbicidal activity post-emergence” value is reported as “good and in most cases very good herbicidal activity”. For `CCC(COC(=O)c1ccc(F)cc1Cl)Nc1nc(N)nc(C(C)C)n1` (stereo not drawn) [Example 23], the “herbicidal activity post-emergence” value was “good and in most cases very good herbicidal activity”. With `CC(C)c1nc(N)nc(NCCOC(=O)c2cccc(C(F)(F)F)c2)n1` [Example 80] the “herbicidal activity post-emergence” value was “good and in most cases very good herbicidal activity”. In the case of `Cc1ccccc1C(=O)OCCNc1nc(N)nc(C(C)C)n1` [Example 43], the “herbicidal activity post-emergence” value is reported as “good and in most cases very good herbicidal activity”. With `CC(C)c1nc(N)nc(NCCOC(=O)c2ccccc2Cl)n1` [Example 20] the “herbicidal activity post-emergence” value was “good and in most cases very good herbicidal activity”. For `CCCCc1ccc(C(=O)OCC(C)Nc2nc(N)nc(C(C)C)n2)cc1` (stereo not drawn) [Example 184], the “herbicidal activity post-emergence” value was “good and in most cases very good herbicidal activity”.

From patent US20030186817A1, “SUBSTITUTED 2,4-DIAMINO-1,3,5-TRIAZINES, PROCESSES FOR THEIR PREPARATION AND THEIR USE AS HERBICIDES AND PLANT GROWTH REGULATORS” (priority 1998, published 2003)
